According to patent publication US20150141485A1, “PROGNOSIS AND TREATMENT OF LUNG CANCER USING miRNA-135b” (NATIONAL CHENG KUNG UNIVERSITY, priority 2013, published 2015):
Blank lines part the entries; values can stand above or below the molecule they belong to.

Columns and labels:
miR-135b expression = experiment: Real-time RT-PCR of miR-135b after DNA demethylation; type: cell-based; conditions: cancer cells treated 4 days
Method: Cells were treated with different doses of 5-aza-2′-CdR (5′-aza) for 4 days, and total RNA was harvested for real time RT-PCR. Data are expressed as the mean±s.d.
(§1) Cells were seeded at concentration of 1×10^5 for treatment with 5-aza-2′-CdR (R&D Systems INC., MN, USA) for 96 hours. For TNF-α (PeproTech, Rocky Hill. N.J.) stimulation, 1×10^6 cells were seeded for 24 hours and treated with different amounts of TNF-α for 6 hours.
(§2) Total RNA was isolated using TRIZOL reagent (Invitrogen, Carisbad, Calif.) according to the standard protocol. The mature miR-135b and endogenous control U6B were analyzed using TaqMan Micro RNA Assay (Applied Biosystems, Foster City, Calif.). Briefly, total RNA was reverse-transcribed via SuperScipt-III Reverse Transcriptase (Invitrogen, Carlsbad, Calif.). The cDNA was amplied with TaqMan 2× Universal Master Mix (Applied Biosystems), and miRNA-specific real-time PCR was performed using an ABI 7500 real-time PCR system.

LEMD1 mRNA = LEMD1 mRNA expression after DNA demethylation; type: cell-based; conditions: lung cancer cell lines
Method: as §1

CL1-5-F4 cells [1] = experiment: Real-time RT-PCR of miR-135b; type: cell-based, human; conditions: 6 hours
Method: CL1-5-F4 cells were treated with different concentrations of TNF-α with or without BAY-117082 (5 or 10 μM) for 6 hours. Total RNA was harvested, and miR-135b expression was analyzed and analysis by real-time RT-PCR. Mean±s.d. is shown, *P<0.05; **P<0.005 by Student's t-test.
as §1, §2

[2] = test system: NF-κB binding site within the miR-135b promoter; experiment: Chromatin immunoprecipitation (ChIP) with anti-p65; type: cell-based; conditions: 6 hours stimulation
Method: The cells were treated with indicated amounts of 5-aza-2′-CdR (upper panel) for 4 days or TNF-α (lower panel) for 6 hours before being subjected to chromatin immunoprecipitation (ChIP) with anti-p65 antibody and specific primers.
CL1-0 and H1299 cells were fixed with 1% formaldehyde and blocked by 125 mM glycine. The cells were resuspended in cell lysis buffer (5 mM HEPES, 85 mM KCl, 0.5% Triton X-100, 1 mM DTT, 1 mM PMSF, pH 8.0), followed by nucleic lysis buffer (50 mMTris-HCl, 10 mM EDTA, 1% SDS, 1 mM DTT, and protease inhibitor (Roche Applied Science, Mannheim, Germany)). The cell lysate was sonicated and clarified by centrifugation. The supernatant was diluted with protein G beads at 4° C. to pre-clear the solution Immunoprecipitation with anti-RelA (Abcam, Cambridge, UK) was performed at 4° C. overnight. DNA-protein complexes were than incubated with protein G agarose beads at 4° C. with constant rotation for 2 hours. Following immunoprecipitation, the beads were washed with a low-salt wash buffer, a high-salt wash buffer, a LiCl wash buffer, and, finally, a TE buffer. The immunoprecipitated complexes were eluted in a buffer containing 10 mM Tris pH 8.0, 300 mM NaCl. 5 mM EDTA, and 0.5% SDS at room temperature. The samples were then treated with proteinase K for 1 hour, followed by RNAse A. Next, the DNA was purified by phenol/chloroform extraction. […]

H1299 cells = experiment: Real-time RT-PCR of miR-135b; type: cell-based; conditions: single treatment
Method: Cells were treated with or without 5-aza-2′-CdR for 4 days and re-seeded for TNF-α stimulation for 6 hours. Total RNA was harvested, and miR-135b expression was analyzed. Mean±s.d. is shown, *P<0.05; **P<0.005 by Student's t-test.
as §1, §2

CL1-5-F4 cells [3] = experiment: Lung metastasis after intravenous injection of sponge-expressing cells; type: in vivo; conditions: SCID mice, i.v. sponge-producing CL1-5-F4 cells, 6 weeks, P=0.0126
From the text: CL-5-F4 cells stably expressing control sponge or miR-135b sponge were intravenously injected into SCID mice (n=8). Representative pictures of murine whole lung (left) and H&E staining of lung sections (right) are presented.
Lung tumor nests in each group were examined and counted using a microscope (n=8); Mean±s.e.m. is shown,*P<0.05 by Student's t-test.
Animals were housed in a specific-pathgen-free environment in the animal facility of the Institute of Biomedical Sciences, Academia Sinica. All experimental procedures were in compliance with the Academia Sinica IACUC and Council of Agriculture Guidebook for the Care and Use of Laboratory Animals. For intravenous injections of the tumor cells, 1×10^6 cells were suspended in 0.1 mL of phosphate-buffered saline (PBS) and injected into lateral tail vein of SCID mice (10 mice per group). […] For the subcutaneous tumor assay, 1×10^6 CL1-0 cells or 2×10^5 H441 cells were subcutaneously injected in 0.1 mL of PBS into male nude mice (n=8 per group) and allowed to grow for 35 days to reach a volume of 50-200 mm^3 Control antagomir (Scramble) or anti-miR-135b antagomir (antago-135) was intravenously injected at a concentration of 10 μM in 0.1 mL of PBS 4 days after the cells were implanted. An example of a miR-135b antagomir is 5′mU(*)mC(*)mAmCmAmUmAmG-mGmAmAmUmGmAmAmAmAmGmCmC(*)mA(*)mU(*)mA(*)(3′-Ch1)3′ (SEQ ID NO:8). […]

CL1-5-F4 cells [4] = experiment: Transwell invasion assay; type: cell-based, human; conditions: CL1-5-F4 cells stably expressing sponge vs control sponge
Method: CL1-5-F4 and Hop-62 cells were transfected with scramble (NC) of miR-135b-specific antagomir (Antago-135b) for 48 hours and the subjected to migration assays (FIG. 2d) and invasion assays (FIG. 2e) as described above. *P<0.05;**P<0.005 by Student's t-test.
CL1-5-F4 cells transfected with plasmids expressing either control or miR-135b sponges were analyzed using in vitro invasion assay. The average number of invading cells obtained in the transwell invasion assay is presented (n=3).
Transwell chambers ([…], BD Falcon, Franklin Lakes, N.J.) were coated with the appropriate amount of Matrigel (BD Biosciences, San Jose, Calif.). Next, 2.5×10^4 cells were suspended in NuSerum-containing media (Gibco BRL, Grand Island N.Y., USA), seeded in the chamber and cultured, Cells that invaded the chamber from top to bottom were fixed with methanol and stained with a solution of propidium iodine (Sigma-Aldrich, St. Louis, Mo.). The propidiumiodine-positive signal was quantified using Analytical Imaging Station software package. Each sample was assayed in triplicate.

Molecule: Nc1ncn([C@H]2C[C@H](O)[C@@H](CO)O2)c(=O)n1 [5-aza-2′CdR]
miR-135b expression levels (miR-135b expression): restored
LEMD1 mRNA expression (LEMD1 mRNA): restored LEND1 mRNA expression in a dose-dependent manner

Molecule: Cc1ccc(S(=O)(=O)/C=C/C#N)cc1 [BAY-117082]
TNF-α-stimulated miR-135b expression (CL1-5-F4 cells [1]; 5 or 10 μM): negated

association of NF-κB with the miR-135b promoter [2]: confirmed
Molecule: TNF-α
miR-135b expression (H1299 cells): induced miR-135b expression was also observed
miR-135b expression (CL1-5-F4 cells [1]): induced miR-135b expression was also observed

B1: miR-135b sponge: miR-135-specific sponge carrying seven repeats of the miR-135b binding site (SEQ ID NO:12) (nucleic acid)
DNA: GTCGACTCACATAGGAACTTAAGCCATAATGCTCACATAGGAACTTAAGCCATAATGCTCACATAGGAACTTAAGCCATAATGCTCACATAGGAACTTAAGCCATAATGCTCACATAGGAACTTAAGCCATAATGCTCACATAGGAACTTAAGCCATAATGCTCACATAGGAACTTAAGCCATAATGTCGAC
number of tumor nodules developed in the mouse lungs (CL1-5-F4 cells [3]): significantly reduced
invasiveness in transwell invasion assay (CL1-5-F4 cells [4]): diminished the invasive
